Test results published in patent publication US11178871B2, “Herbicidal pyrimidine compounds” (BASF SE, priority 2016, dated 2021).

Experiments:
Type in all cases: in vivo
[1] = system: Avena fatua; assay: greenhouse test, post-emergence treatment, AVEFA; conditions: 2000 g/ha
In short: (§1)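 Post-emergence greenhouse herbicide test: plants at 3–15 cm sprayed with aqueous formulation of compound, then evaluated on a 0–100 damage scale after 2–4 weeks.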

[2] = system: Poa annua; assay: greenhouse test, pre-emergence treatment, POAAN
Source text: (§2) The culture containers used were plastic flowerpots containing loamy sand with approximately 3.0% of humus as the substrate. The seeds of the test plants were sown separately for each species.
For the pre-emergence treatment, the active ingredients, which had been suspended or emulsified in water, were applied directly after sowing by means of finely distributing nozzles. The containers were irrigated gently to promote germination and growth and subsequently covered with transparent plastic hoods until the plants had rooted. This cover caused uniform germination of the test plants, unless this had been impaired by the active ingredients.
(§3) Depending on the species, the plants were kept at 10-25° C. or 20-35° C., respectively.
(§4) The test period extended over 2 to 4 weeks. During this time, the plants were tended, and their response to the individual treatments was evaluated.
(§5) Evaluation was carried out using a scale from 0 to 100. 100 means no emergence of the plants, or complete destruction of at least the aerial moieties, and 0 means no damage, or normal course of growth. A good herbicidal activity is given at values of at least 70 and a very good herbicidal activity is given at values of at least 85.
(§6) The plants used in the greenhouse experiments were of the following species: […]

[3] = system: Echinocloa crus-galli; assay: greenhouse test, pre-emergence treatment, ECHCG
In short: (§7)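 Damage scored visually on a 0-100 scale (100 = no emergence or complete destruction of aerial parts, 0 = normal growth) after 2 to 4 weeks. Treatment was applied pre-emergence as an aqueous suspension or emulsion immediately after sowing in loamy sand (approx. 3.0% humus).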

[4] = system: Echinocloa crus-galli; assay: greenhouse test, post-emergence treatment, ECHCG
In short: as §1

[5] = system: Alopecurus myosuroides; assay: greenhouse test, post-emergence treatment, ALOMY
In short: as §1

[6] = system: Apera spica-venti; assay: greenhouse test, pre-emergence treatment, APESV
In short: as §7

[7] = system: Matricaria inodora; assay: greenhouse test, post-emergence treatment, MATIN; conditions: 2000 g/ha
Source text: as §2
(§8) For the post-emergence treatment, the test plants were first grown to a height of 3 to 15 cm, depending on the plant habit, and only then treated with the active ingredients which had been suspended or emulsified in water. For this purpose, the test plants were either sown directly and grown in the same containers, or they were first grown separately as seedlings and transplanted into the test containers a few days prior to treatment.
as §3, §4, §5, §6

[8] = system: Polygonum convolvulus; assay: greenhouse test, post-emergence treatment, POLCO
Source text: as §2, §8, §3, §4, §5, §6

[9] = system: Apera spica-venti; assay: greenhouse test, post-emergence treatment, APESV
Source text: as §2, §8, §3, §4, §5, §6

[10] = system: Amaranthus retroflexus; assay: greenhouse test, post-emergence treatment, AMARE
Source text: as §2, §8, §3, §4, §5, §6

[11] = system: Abutilon theophrasti; assay: greenhouse test, post-emergence treatment, ABUTH; conditions: 2000 g/ha
Source text: as §2, §8, §3, §4, §5, §6

[12] = system: Setaria viridis; assay: greenhouse test, post-emergence treatment, SETVI
In short: as §1

[13] = 1000 g/ha, printed under post-emergence, method not restated
[14] = 500 g/ha, printed under post-emergence, method not restated

Clc1ccccc1-c1cnc(C2CC2)nc1-c1ccncn1 [Ex. 225]
herbicidal activity [1]: very good (a very good herbicidal activity is given at values of at least 85) | herbicidal activity ([2]; 2000 g/ha): very good (a very good herbicidal activity is given at values of at least 85) | herbicidal activity ([3]; 2000 g/ha): very good (a very good herbicidal activity is given at values of at least 85) | herbicidal activity ([4]; post-emergence, 2000 g/ha): very good (a very good herbicidal activity is given at values of at least 85) | herbicidal activity ([5]; post-emergence, 2000 g/ha): very good (a very good herbicidal activity is given at values of at least 85) | herbicidal activity ([6]; 2000 g/ha): very good (a very good herbicidal activity is given at values of at least 85)

OC(Cc1nc(C2CC2)ncc1-c1ccccc1Cl)c1c(Cl)ccc(Cl)c1Cl (stereo not drawn) [Ex. 231]
herbicidal activity [7]: good (A good herbicidal activity is given at values of at least 70) | herbicidal activity ([4]; post-emergence, 2000 g/ha): very good (a very good herbicidal activity is given at values of at least 85)

COC(=O)C(O)(CO)c1nc(C2CC2)ncc1-c1ccccc1Cl (stereo not drawn) [Ex. 230]
herbicidal activity [7]: good (A good herbicidal activity is given at values of at least 70)

Cc1ccc(-c2nc(C3CC3)ncc2-c2ccccc2I)o1 [Ex. 108]
herbicidal activity ([8]; 500 g/ha): very good (a very good herbicidal activity is given at values of at least 85) | herbicidal activity ([5]; post-emergence, 500 g/ha): good (A good herbicidal activity is given at values of at least 70)

Cc1nc(C)c(-c2nc(C3CC3)ncc2-c2c(F)cccc2Cl)o1 [Ex. 309]
herbicidal activity ([9]; 1000 g/ha): very good (a very good herbicidal activity is given at values of at least 85) | herbicidal activity ([4]; post-emergence, 1000 g/ha): very good (a very good herbicidal activity is given at values of at least 85) | herbicidal activity ([5]; post-emergence, 1000 g/ha): very good (a very good herbicidal activity is given at values of at least 85) | herbicidal activity ([10]; 1000 g/ha): very good (a very good herbicidal activity is given at values of at least 85)

CC(C)=CC(O)Cc1nc(C2CC2)ncc1-c1ccccc1Cl (stereo not drawn) [Ex. 223]
herbicidal activity ([2]; 2000 g/ha): very good (a very good herbicidal activity is given at values of at least 85) | herbicidal activity ([3]; 2000 g/ha): very good (a very good herbicidal activity is given at values of at least 85) | herbicidal activity ([4]; post-emergence, 2000 g/ha): very good (a very good herbicidal activity is given at values of at least 85) | herbicidal activity ([6]; 2000 g/ha): very good (a very good herbicidal activity is given at values of at least 85) | herbicidal activity [11]: very good (a very good herbicidal activity is given at values of at least 85) | herbicidal activity ([10]; 2000 g/ha): very good (a very good herbicidal activity is given at values of at least 85)

CSc1ncc(-c2nc(C3CC3)ncc2-c2ccccc2Cl)cn1 [Ex. 248]
herbicidal activity ([2]; 2000 g/ha): very good (a very good herbicidal activity is given at values of at least 85) | herbicidal activity ([3]; 2000 g/ha): very good (a very good herbicidal activity is given at values of at least 85) | herbicidal activity ([4]; post-emergence, 2000 g/ha): very good (a very good herbicidal activity is given at values of at least 85) | herbicidal activity ([12]; 2000 g/ha): very good (a very good herbicidal activity is given at values of at least 85) | herbicidal activity ([5]; post-emergence, 2000 g/ha): very good (a very good herbicidal activity is given at values of at least 85) | herbicidal activity ([6]; 2000 g/ha): very good (a very good herbicidal activity is given at values of at least 85)

OCc1nc(C2CC2)ncc1-c1ccccc1Br [Ex. 13]
herbicidal activity ([8]; 250 g/ha): very good (a very good herbicidal activity is given at values of at least 85) | herbicidal activity ([4]; post-emergence, 250 g/ha): very good (a very good herbicidal activity is given at values of at least 85) | herbicidal activity ([5]; post-emergence, 250 g/ha): very good (a very good herbicidal activity is given at values of at least 85) | herbicidal activity ([6]; 250 g/ha): very good (a very good herbicidal activity is given at values of at least 85)

CC1OC1c1nc(C2CC2)ncc1-c1ccccc1Br (stereo not drawn) [Ex. 213]
herbicidal activity [1]: very good (a very good herbicidal activity is given at values of at least 85) | herbicidal activity ([2]; 2000 g/ha): good (A good herbicidal activity is given at values of at least 70) | herbicidal activity ([3]; 2000 g/ha): good (A good herbicidal activity is given at values of at least 70) | herbicidal activity ([4]; post-emergence, 2000 g/ha): very good (a very good herbicidal activity is given at values of at least 85) | herbicidal activity ([5]; post-emergence, 2000 g/ha): very good (a very good herbicidal activity is given at values of at least 85) | herbicidal activity ([6]; 2000 g/ha): good (A good herbicidal activity is given at values of at least 70)

Brc1cc(-c2nc(C3CC3)ncc2-c2ccccc2Br)co1 [Ex. 268]
herbicidal activity ([2]; 1000 g/ha): very good (a very good herbicidal activity is given at values of at least 85) | herbicidal activity ([3]; 1000 g/ha): very good (a very good herbicidal activity is given at values of at least 85) | herbicidal activity ([4]; post-emergence, 1000 g/ha): very good (a very good herbicidal activity is given at values of at least 85)

Clc1ccccc1-c1cnc(C2CC2)nc1-c1cccs1 [Ex. 29]
herbicidal activity [7]: very good (a very good herbicidal activity is given at values of at least 85) | herbicidal activity ([10]; 2000 g/ha): very good (a very good herbicidal activity is given at values of at least 85)

Clc1ccccc1-c1cnc(C2CC2)nc1-c1ncco1 [Ex. 315]
herbicidal activity ([9]; 2000 g/ha): very good (a very good herbicidal activity is given at values of at least 85) | herbicidal activity ([4]; 2000 g/ha, printed under post-emergence, method not restated): very good (a very good herbicidal activity is given at values of at least 85) | herbicidal activity ([4]; post-emergence, 2000 g/ha): very good (a very good herbicidal activity is given at values of at least 85) | herbicidal activity ([5]; post-emergence, 2000 g/ha): very good (a very good herbicidal activity is given at values of at least 85) | herbicidal activity ([10]; 2000 g/ha): very good (a very good herbicidal activity is given at values of at least 85)

Fc1cccc(Cl)c1-c1cnc(C2CC2)nc1-c1ccoc1 [Ex. 41]
herbicidal activity [7]: very good (a very good herbicidal activity is given at values of at least 85) | herbicidal activity ([5]; post-emergence, 2000 g/ha): very good (a very good herbicidal activity is given at values of at least 85)

COC(=O)C(OC(C)=O)c1nc(C2CC2)ncc1-c1ccccc1Cl (stereo not drawn) [Ex. 222]
herbicidal activity [7]: very good (a very good herbicidal activity is given at values of at least 85) | herbicidal activity [11]: very good (a very good herbicidal activity is given at values of at least 85) | herbicidal activity ([10]; 2000 g/ha): very good (a very good herbicidal activity is given at values of at least 85)

Clc1ccc(Cl)c(/C=C/c2nc(C3CC3)ncc2-c2ccccc2Cl)n1 [Ex. 257]
herbicidal activity [7]: good (A good herbicidal activity is given at values of at least 70)

Cc1cnc(-c2nc(C3CC3)ncc2-c2ccccc2Cl)o1 [Ex. 314]
herbicidal activity ([9]; 1000 g/ha): very good (a very good herbicidal activity is given at values of at least 85) | herbicidal activity [4, 13]: very good (a very good herbicidal activity is given at values of at least 85) | herbicidal activity ([4]; post-emergence, 1000 g/ha): very good (a very good herbicidal activity is given at values of at least 85) | herbicidal activity ([12]; 1000 g/ha): very good (a very good herbicidal activity is given at values of at least 85) | herbicidal activity ([10]; 1000 g/ha): very good (a very good herbicidal activity is given at values of at least 85)

Cc1nc(O)oc1-c1nc(C2CC2)ncc1-c1ccccc1Br [Ex. 312]
herbicidal activity ([9]; 500 g/ha): very good (a very good herbicidal activity is given at values of at least 85) | herbicidal activity ([8]; 500 g/ha): very good (a very good herbicidal activity is given at values of at least 85) | herbicidal activity [4, 14]: very good (a very good herbicidal activity is given at values of at least 85) | herbicidal activity ([4]; post-emergence, 500 g/ha): very good (a very good herbicidal activity is given at values of at least 85) | herbicidal activity [5, 14]: very good (a very good herbicidal activity is given at values of at least 85) | herbicidal activity ([5]; post-emergence, 500 g/ha): very good (a very good herbicidal activity is given at values of at least 85)

CCCc1nc(C)c(-c2nc(C3CC3)ncc2-c2ccccc2Cl)o1 [Ex. 313]
herbicidal activity ([9]; 1000 g/ha): very good (a very good herbicidal activity is given at values of at least 85) | herbicidal activity [4, 13]: very good (a very good herbicidal activity is given at values of at least 85) | herbicidal activity ([4]; post-emergence, 1000 g/ha): very good (a very good herbicidal activity is given at values of at least 85) | herbicidal activity ([12]; 1000 g/ha): very good (a very good herbicidal activity is given at values of at least 85) | herbicidal activity ([5]; post-emergence, 1000 g/ha): very good (a very good herbicidal activity is given at values of at least 85)
